Entries after “also recorded” stand apart in the source; their conditions may differ.
Experiments:
[1] = cited from earlier work
[2] = test system: β-galactosidase; test: Reactivity with thiol groups of proteins (Example 51); assay type: biochemical
Experimental: To test the specificity of the Compound 1 reaction with GSH versus thiol-containing proteins, β-galactosidase (a protein that has several free thiols) is dissolved at 5 mg/mL in deoxygenated 0.1M phosphate, 0.1M NaCl, pH 7.5, and reacted under anaerobic conditions with 5-(pentafluorobenzoylamino)fluorescein diacetate (Compound 4, Example 3) or Compound 1 dissolved at 10 mg/mL in DMSO at a molar ratio of the reagent to protein of 15. This assay is performed both in the presence and absence of 30 mM N-ethyl maleimide (NEM) as an effective thiol-blocking reagent. The reactions are incubated at room temperature for 1 hour, stopped by the addition of hydroxylamine, pH 9 to a final concentration of 0.15M, and incubated for 2 more hours to hydrolyze the acetate groups. […] Consequently, no reaction of either Compound 4 or Compound 1 with β-galactosidase is detected under the described conditions.

[3] = test system: NIH-3T3 cells; test: Hydrolysis of esterase substrates and product retention in live cells, flow cytometry (Example 65); assay type: cell-based
Experimental: NIH-3T3 cells obtained from American Type Culture Collection Co., Rockville, Md. are used. They are grown in a humidified atmosphere of 5% CO2 in D-MEM supplemented with 10% bovine calf serum (BCS), 50 μg/mL gentamycin, 300 μg/mL L-glutamine and 10 mM HEPES, pH 7.4. Stock solutions of Compound 4 (Example 3), 10 mM in DMSO, and Compound 48 (Example 50), 5 mM in DMSO, are prepared. NIH-3T3 cells are trypsinized, washed with phosphate-buffered saline (PBS), pH 7.2 and resuspended in D-MEM with 10% BCS. To 1 mL of the cell suspension is added the dye stock solution to obtain a final dye concentration of 0.1 mM. Incubation is carried out at 37° C. for 30 minutes followed by incubation on ice for 30 minutes. Cells are centrifuged to form a pellet, the supernatant is discarded and the cells are washed twice with PBS, pH 7.2 and suspended in the same buffer. Cells are analyzed by flow cytometry using the Becton-Dickinson FACS Vantage flow cytometer. After analysis on the flow cytometer, cells are placed at 37° C. and analyzed by flow cytometry at frequent intervals over a period of 75 minutes. Cells stained with either of the dyes are at least 20-fold brighter than the autofluorescent control cells. Approximately 45% of Compound 4 and 35% of Compound 48 are still retained by the cells after 75 minutes of incubation at 37° C.

[4] = test system: Bovine pulmonary aorta endothelial cells (BPAEC); test: Glutathione adduct formation and fate of substrate in cultured animal cells, HPLC (Example 66); assay type: cell-based
Experimental: The solutions are mixed overnight with three volumes of ethyl acetate followed by centrifugation at 15,000×g for 30 min to separate the organic and aqueous layers. HPLC analysis using a Rainin HPLC equipped with a C18, 5 μm, 100 Å, 4.6×250 mm MICROSORB-MV reverse phase column. […] Products are detected by reading the absorbance at 500 nm.
Bovine pulmonary aorta endothelial cells (BPAEC) are removed from flasks by trypsinization and washed into fresh complete growth medium to yield 10^6 cells/mL. […] Other aliquots of the cell suspension are loaded with the same substrates for 1 hour, rinsed into fresh complete medium, then incubated in the absence of substrate for an additional 3 hr at 37° C. to look for retention and efflux of fluorescent products. At the end of each incubation period the cells are removed by centrifugation and the supernate is retained. The cell pellets are resuspended in 1 mL of E-Pure water and subjected to three freeze-thaw cycles (-80° C. to 37° C.).

[5] = test system: Bovine pulmonary aorta endothelial cells (BPAEC); test: Retention of fluorescence in fixed cells (Example 66); assay type: cell-based; conditions: 3.7% formaldehyde 30 minutes, 0.2% Triton X-100 30 minutes
[6] = test system: 3T3 or BPAE cells; test: Intracellular products of tracers by gel electrophoresis (Example 67); assay type: cell-based; conditions: 5 μM, 1 hr, 37° C.
Experimental: (§1) Cultures of either 3T3 or BPAE cells are treated with 5 μM solutions of either Compound 4,5-(pentachlorobenzoylamino)fluorescein diacetate, 5-pentafluorobenzenesulfonylamino)fluorescein diacetate, or 5-chloromethylfluorescein diacetate (CMFDA, Molecular Probes, Inc.) for 1 hr at 37° C. The cells are spun, resuspended in distilled water and lysed by repeated freezing and thawing. 20 μL of the cell lysate supernatant is diluted with 30 μL of SDS-PAGE sample buffer, containing β-mercaptoethanol. The cell pellets are dispersed in 50 μL of water. 20 μL of each sample is added to 30 μL of the same sample buffer. The samples are heated at 95° C. for 5 min. and loaded on 4-20% polyacrylamide gradient minigels. At the completion of the run the gels are observed with UV excitation.

[7] = test system: 3T3 or BPAE cells; test: Intracellular products of tracers by TLC and HPLC (Example 67); assay type: cell-based; conditions: 5 μM, 1 hr, 37° C.
Experimental: Reaction mixtures with and without GST using Compound 1 as the substrate, are prepared as described in Example 48. The solutions are mixed overnight with three volumes of ethyl acetate followed by centrifugation at 15,000×g for 30 min to separate the organic and aqueous layers. HPLC analysis using a Rainin HPLC equipped with a C18, 5 μm, 100 Å, 4.6×250 mm MICROSORB-MV reverse phase column. Products are separated in 30 min with a gradient of 5% to 95% solvent B in Solvent A at a flow rate of 1 mL/min, where solvent A is 0.1M triethylammonium acetate, pH 7.0, and solvent B is acetonitrile (see FIG. 1). Products are detected by reading the absorbance at 500 nm. Peaks are identified and, if desired, quantitated by comparing retention times with authentic samples of the glutathione adduct of Compound 45 (Example 45).
as §1
Alternatively, the above samples are analyzed by TLC and by HPLC, as described in Examples 48 and 52. […] Coinjection with authentic Compound 1 confirms the identity of the substrate peak and coinjection with the authentic Compound 1-GSH adduct (Example 45) confirms the identify of the other fluorescent product.

[8] = 15 min, 5 μM substrate, continuous
[9] = 1 hr, washed, then additional 3 hr at 37° C.
[10] = 4 hrs, 5 μM substrate, continuous

Which “reaction with GSH in the presence of GST enzymes” value [1] does the source give for O=[N+]([O-])c1ccc(Cl)c([N+](=O)[O-])c1 [1-Chloro-2,4-dinitrobenzene] here?
Its value is “react specifically with GSH in the presence of GST enzymes”.

What does the source list for CC(=O)Oc1ccc2c(c1)Oc1cc(OC(C)=O)ccc1C21OC(=O)c2cc(NC(=O)c3c(F)c(F)c(F)c(F)c3F)ccc21 [Compound 4, 5-(pentafluorobenzoylamino)fluorescein diacetate]?
fluorescent proteins formed, gel electrophoresis ([2]; molar ratio of reagent to protein 15): no fluorescent proteins are formed; reaction with β-galactosidase, TLC ([2]; molar ratio of reagent to protein 15, pH 7.5, 1 hour, with and without 30 mM NEM): no reaction; brightness versus autofluorescent control cells ([3]; 0.1 mM dye, 37° C., 30 minutes then on ice 30 minutes): at least 20 fold; dye retained by the cells ([3]; after 75 minutes of incubation at 37° C.): Approximately 45%; GSH adduct formation in cells ([4]; 5 μM substrate, 37° C., HPLC): hydrolyzed and conjugated to glutathione; also recorded: gives rise to glutathione (GSH) adducts; EXTRACELLULAR Free dye [4, 8]: 3350 relative fluorescence units; EXTRACELLULAR Free dye, fraction of total fluorescence [4, 8]: 89.2%; EXTRACELLULAR GSH adduct [4, 8]: 97 relative fluorescence units; EXTRACELLULAR GSH adduct, fraction of total fluorescence [4, 8]: 2.6%; INTRACELLULAR Free dye [4, 8]: 237 relative fluorescence units; INTRACELLULAR Free dye, fraction of total fluorescence [4, 8]: 6.3%; INTRACELLULAR GSH adduct [4, 8]: 72 relative fluorescence units; INTRACELLULAR GSH adduct, fraction of total fluorescence [4, 8]: 1.9%; EXTRACELLULAR Free dye [4, 9]: 361 relative fluorescence units; EXTRACELLULAR Free dye, fraction of total fluorescence [4, 9]: 85.3%; EXTRACELLULAR GSH adduct [4, 9]: 62 relative fluorescence units; EXTRACELLULAR GSH adduct, fraction of total fluorescence [4, 9]: 14.7%; INTRACELLULAR Free dye [4, 9]: < 1 relative fluorescence units; INTRACELLULAR Free dye, fraction of total fluorescence [4, 9]: < 0.2%; INTRACELLULAR GSH adduct [4, 9]: < 1 relative fluorescence units; INTRACELLULAR GSH adduct, fraction of total fluorescence [4, 9]: < 0.2%; EXTRACELLULAR Free dye [4, 10]: 4498 relative fluorescence units; EXTRACELLULAR Free dye, fraction of total fluorescence [4, 10]: 86.8%; EXTRACELLULAR GSH adduct [4, 10]: 642 relative fluorescence units; EXTRACELLULAR GSH adduct, fraction of total fluorescence [4, 10]: 12.4%; INTRACELLULAR Free dye [4, 10]: 23 relative fluorescence units; INTRACELLULAR Free dye, fraction of total fluorescence [4, 10]: 0.4%; INTRACELLULAR GSH adduct [4, 10]: 21 relative fluorescence units; INTRACELLULAR GSH adduct, fraction of total fluorescence [4, 10]: 0.4%; fluorescence after fixation and permeabilization [5]: appreciably fluorescent; fluorescent bands on gel (region of the tracking dye) [6]: Two closely spaced green fluorescent bands; protein adduct bands on gel [6]: No other band corresponding to proteins is visible; products by HPLC ([7]; HPLC): two peaks; products by TLC ([7]; TLC): formation of a GSH adduct

For O=S1(=O)OC(c2cc(Br)c(O)c(Br)c2)(c2cc(Br)c(O)c(Br)c2)c2ccccc21 [tetrabromophenolsulfonephthalein], which “reaction with GSH in the presence of GST enzymes” value [1] is on record?
The value was “react specifically with GSH in the presence of GST enzymes”.

Reference: US5773236A, “Assay for glutathiane transferase using polyhaloaryl-substituted reporter molecules” (Molecule Probes, Inc., priority 1997, dated 1998)
